The values that follow come from patent publication US20250236627A1, “CERTAIN OCTAHYDROFURO[3,4- B]PYRAZINES AS GLP-1 RECEPTOR MODULATORS” (ASTRAZENECA AB, priority 2021, published 2025).

Some results are limits rather than exact numbers.

For experiment [1], the target named is T1, endogenous human glucagon-like peptide 1 receptor (GLP-1R) (Homo sapiens, UniProt P43220).
T1 construct: endogenous human glucagon-like peptide 1 receptor (GLP-1R) in a pancreatic insulinoma cell line; host or cells: EndoC-βH1 human pancreatic β cell line
Kind of experiment: EndoC cAMP Accumulation Assay. Format: cell-based. Particulars: EndoC-βH1 human pancreatic β cell line; HTRF cAMP assay. Put shortly: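 Thawed EndoC-βH1 cells (3000 per well) were stimulated for 30 min at room temperature in HBSS/25 mM HEPES pH 7.4, 0.1% BSA and 0.5 mM IBMX. cAMP was measured by HTRF competitive immunoassay after 1 h. Responses were fitted by 4-parameter logistic as % activation relative to maximal GIP (82.5 nM), with basal cAMP as zero.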
(Time-resolved FRET reads energy transfer from a long-lived donor to a nearby acceptor.)

Experiment [2] deals with T2, human phosphodiesterase-3A (Homo sapiens, UniProt Q14432).
T2 construct: host or cells: Sf9 cells
Kind of experiment: PDE3 Assay. Format: biochemical. Particulars: human recombinant enzyme expressed in Sf9 cells; formation of 5′AMP from cAMP. Here is the method: Evaluation of the effects of compounds on the activity of the human phosphodiesterase-3A is quantified by measuring the formation of 5′AMP from cAMP using a human recombinant enzyme expressed in Sf9 cells.
The test compound, reference compound or water (control) are added to a buffer containing 40 mM Tris/HCl (pH 7.4) and 8 mM MgCl2, 450 nM cAMP and 0.25 μCi [^3H]cAMP.
Thereafter, the reaction is initiated by addition of the enzyme (about 1 U) and the mixture is incubated for 20 min at 22° C.
For basal control measurements, the enzyme is omitted from the reaction mixture.
Following incubation SPA beads are added. After 30 min at 22° C. under shaking, the amount of [^3H]5′AMP is quantified with a scintillation counter (Topcount, Packard).
The results are expressed as a percent inhibition of the control enzyme activity. The standard inhibitory reference compound is milrinone (CAS number 78415-72-2), which is tested in each experiment at several concentrations to obtain an inhibition curve from which its IC50 value is calculated.

A further experiment deals with T3, human GLP-1R receptor (Homo sapiens, UniProt P43220, L260F).
T3 construct: expressed in transfected cells; host or cells: CHO-K1 (ATCC CCL-61)
Kind of experiment: CHOK1 GLP-1R cAMP Assay. Format: cell-based. Particulars: CHO-K1 cell line stably expressing human GLP-1R; HTRF cAMP detection. An outline of the steps:
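CHO-K1 cells, 800/well, stimulated 20 min at room temperature with compound in HEPES pH 7.4/HBSS/0.1% BSA plus IBMX (1 mM in the added buffer). cAMP measured by HTRF competitive immunoassay after ≥1 h, converted to pM via standard curve. EC50 from 4-parameter logistic fit; % effect relative to saturating GLP1(7-36)NH2.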

T3 sequence (P43220 24-463 L260F): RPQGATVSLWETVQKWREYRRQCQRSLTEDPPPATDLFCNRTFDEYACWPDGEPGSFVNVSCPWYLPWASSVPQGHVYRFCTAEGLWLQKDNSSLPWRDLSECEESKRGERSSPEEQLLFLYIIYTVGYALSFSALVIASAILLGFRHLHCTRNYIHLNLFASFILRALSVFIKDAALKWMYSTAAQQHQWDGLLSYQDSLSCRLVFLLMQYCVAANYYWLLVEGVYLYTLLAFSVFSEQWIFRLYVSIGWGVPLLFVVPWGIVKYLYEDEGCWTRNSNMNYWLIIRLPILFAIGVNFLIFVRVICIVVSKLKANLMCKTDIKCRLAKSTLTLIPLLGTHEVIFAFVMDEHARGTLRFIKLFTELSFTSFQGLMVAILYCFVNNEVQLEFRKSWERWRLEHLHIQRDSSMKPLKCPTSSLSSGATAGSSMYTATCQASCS
T1 sequence (P43220 24-463): as the sequence (P43220 24-463 L260F) above, with F237L counted along it
T2 sequence (Q14432 whole entry): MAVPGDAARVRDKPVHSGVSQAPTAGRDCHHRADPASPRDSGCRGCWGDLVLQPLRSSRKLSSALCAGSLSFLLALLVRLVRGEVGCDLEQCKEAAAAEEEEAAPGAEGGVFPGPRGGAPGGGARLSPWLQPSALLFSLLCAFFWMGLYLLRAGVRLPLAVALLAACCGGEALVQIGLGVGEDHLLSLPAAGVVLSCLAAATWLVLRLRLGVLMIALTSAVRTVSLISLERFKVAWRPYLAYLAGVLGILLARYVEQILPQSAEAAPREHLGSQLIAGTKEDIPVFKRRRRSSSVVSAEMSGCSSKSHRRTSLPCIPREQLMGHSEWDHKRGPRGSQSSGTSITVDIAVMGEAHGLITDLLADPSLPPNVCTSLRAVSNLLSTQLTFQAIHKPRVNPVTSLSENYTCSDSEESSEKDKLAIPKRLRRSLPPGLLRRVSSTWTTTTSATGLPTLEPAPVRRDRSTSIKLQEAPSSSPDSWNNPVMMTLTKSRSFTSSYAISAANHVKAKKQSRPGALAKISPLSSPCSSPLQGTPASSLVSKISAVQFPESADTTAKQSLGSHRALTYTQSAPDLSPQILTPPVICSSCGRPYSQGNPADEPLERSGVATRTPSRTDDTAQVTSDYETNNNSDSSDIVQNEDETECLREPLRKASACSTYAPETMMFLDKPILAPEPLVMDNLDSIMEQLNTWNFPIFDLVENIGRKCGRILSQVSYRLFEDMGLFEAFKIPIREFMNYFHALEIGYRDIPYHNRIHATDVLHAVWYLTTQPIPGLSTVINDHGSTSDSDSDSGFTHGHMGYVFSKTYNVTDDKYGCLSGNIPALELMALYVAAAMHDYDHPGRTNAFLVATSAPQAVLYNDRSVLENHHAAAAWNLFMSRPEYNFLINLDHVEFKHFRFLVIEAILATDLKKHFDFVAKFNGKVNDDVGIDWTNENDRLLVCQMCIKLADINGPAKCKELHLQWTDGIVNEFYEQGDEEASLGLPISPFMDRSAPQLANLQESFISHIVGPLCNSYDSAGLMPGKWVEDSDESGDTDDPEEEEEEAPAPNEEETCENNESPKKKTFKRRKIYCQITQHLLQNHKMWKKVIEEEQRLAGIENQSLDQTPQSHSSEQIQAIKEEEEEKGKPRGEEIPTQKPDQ

What is called EC50 is the concentration giving half of the maximal effect. A high value points to lower potency in that assay. The IC50 is the midpoint of a concentration-inhibition curve. For `C[C@]1(c2ccc(Cl)cn2)Oc2cccc(N3CCN(Cc4nc5c(F)cc(C(=O)O)cc5n4C[C@@H]4CCO4)[C@H]4COC[C@H]43)c2O1` (single isomer, unassigned) [Example 9a, 2-(((4aR*,7aS*)-4-((R*)-2-(5-Chloropyridin-2-yl)-2-methylbenzo[d][1,3]dioxol-4-yl)hexahydrofuro[3,4-b]pyrazin-1(2H)-yl)methyl)-4-fluoro-1-(((S)-oxetan-2-yl)methyl)-1H-benzo[d]imidazole-6-carboxylic acid], the EC50 in experiment [1] stood at 3.9 nM; at human GLP-1R receptor, 1.5 nM. Also, the IC50 in experiment [2] is above 100000 nM.

`C[C@]1(c2ccc(Cl)cn2)Oc2cccc(N3CCN(Cc4nc5c(F)cc(C(=O)O)cc5n4CC4(CC#N)CC4)[C@H]4COC[C@H]43)c2O1` (single isomer, unassigned) [Example 21]: the EC50 (in experiment [1]; on human GLP-1R receptor) was 3 nM in each case. In experiment [2], the IC50 was above 100000 nM.

Turning to `C[C@]1(c2ccc(Cl)cn2)Oc2cccc(N3CCN(Cc4nc5ccc(C(=O)O)cc5n4C[C@@H]4CCO4)[C@H]4COC[C@H]43)c2O1` (single isomer, unassigned) [Example 5b, 2-(((4aR*,7aS*)-4-((R*)-2-(5-Chloropyridin-2-yl)-2-methylbenzo[d][1,3]dioxol-4-yl)hexahydrofuro[3,4-b]pyrazin-1(2H)-yl)methyl)-1-(((S)-oxetan-2-yl)methyl)-1H-benzo[d]imidazole-6-carboxylic acid], the EC50 in experiment [1] stood at 9.5 nM; on human GLP-1R receptor, 2.2 nM. Besides, the IC50 in experiment [2] was above 100000 nM.

In the case of `N#Cc1ccc(COc2cccc(C3CCN(Cc4nc5ccc(C(=O)O)cc5n4C[C@@H]4CCO4)CC3)n2)c(F)c1` [Ref Comp B, reference compound], the IC50 in experiment [2] was determined as 11000 nM.

Take `C[C@]1(c2ccc(Cl)cn2)Oc2cccc(N3CCN(Cc4nc5c(Cl)cc(C(=O)O)cc5n4C[C@@H]4CCO4)[C@H]4COC[C@H]43)c2O1` (single isomer, unassigned) [Example 14c, 4-Chloro-2-(((4aR*,7aS*)-4-((R*)-2-(5-chloropyridin-2-yl)-2-methylbenzo[d][1,3]dioxol-4-yl)hexahydrofuro[3,4-b]pyrazin-1(2H)-yl)methyl)-1-(((S)-oxetan-2-yl)methyl)-1H-benzo[d]imidazole-6-carboxylic acid]: the EC50 in experiment [1] turned out to be 230 nM; at human GLP-1R receptor, 180 nM.

For the compound `C[C@]1(c2ccc(Cl)cc2F)Oc2cccc(N3CCN(Cc4nc5c(F)cc(C(=O)O)cc5n4Cc4cccnc4)[C@H]4COC[C@H]43)c2O1` (single isomer, unassigned) [Example 13b], the EC50 in experiment [1] worked out at 290 nM; on human GLP-1R receptor, 680 nM.

Turning to `C[C@]1(c2ccc(Cl)cn2)Oc2cccc(N3CCN(Cc4nc5c(F)cc(C(=O)O)cc5n4C[C@@H]4CCCO4)[C@H]4COC[C@H]43)c2O1` (single isomer, unassigned) [Example 12b, 2-(((4aR*,7aS*)-4-((R*)-2-(5-Chloropyridin-2-yl)-2-methylbenzo[d][1,3]dioxol-4-yl)hexahydrofuro[3,4-b]pyrazin-1(2H)-yl)methyl)-4-fluoro-1-(((S)-tetrahydrofuran-2-yl)methyl)-1H-benzo[d]imidazole-6-carboxylic acid], the EC50 in experiment [1] is 91 nM; on human GLP-1R receptor, 61 nM.

With `COc1cc(C(=O)O)cc2c1nc(CN1CCN(c3cccc4c3O[C@@](C)(c3ccc(Cl)cn3)O4)[C@@H]3COC[C@@H]31)n2C[C@@H]1CCCO1` (single isomer, unassigned) [Example 2b, 2-(((4aR*,7aS*)-4-((R*)-2-(5-Chloropyridin-2-yl)-2-methylbenzo[d][1,3]dioxol-4-yl)hexahydrofuro[3,4-b]pyrazin-1(2H)-yl)methyl)-4-methoxy-1-(((S)-tetrahydrofuran-2-yl)methyl)-1H-benzo[d]imidazole-6-carboxylic acid], the EC50 came out at 86 nM in experiment [1] and 110 nM on human GLP-1R receptor.

`C[C@@]1(c2ccc(Cl)cc2F)Oc2cccc(N3CCN(Cc4nc5c(F)cc(C(=O)O)cc5n4Cc4cccnc4)[C@@H]4COC[C@@H]43)c2O1` (relative stereo) [Example 13c, rel-2-(((4aR,7aS)-4-((R)-2-(4-Chloro-2-fluorophenyl)-2-methylbenzo[d][1,3]dioxol-4-yl)hexahydrofuro[3,4-b]pyrazin-1(2H)-yl)methyl)-4-fluoro-1-(pyridin-3-ylmethyl)-1H-benzo[d]imidazole-6-carboxylic acid]: the figures for the 50% effective concentration (EC50) (in experiment [1]; at human GLP-1R receptor) were 340 nM and 730 nM, respectively.

For the compound `C[C@]1(c2ccc(Cl)cn2)Oc2cccc(N3CCN(Cc4nc5ccc(C(=O)O)cc5n4CC4(C#N)CC4)[C@H]4COC[C@H]43)c2O1` (single isomer, unassigned) [Example 26], the results for the EC50 (in experiment [1]; at human GLP-1R receptor) were 11 nM and 3.6 nM, respectively.

For `COc1cc(C(=O)O)cc2c1nc(CN1CCN(c3cccc4c3O[C@@](C)(c3ccc(Cl)cn3)O4)[C@@H]3COC[C@@H]31)n2C[C@@H]1CCO1` (single isomer, unassigned) [Example 1a, 2-(((4aR*,7aS*)-4-((R*)-2-(5-Chloropyridin-2-yl)-2-methylbenzo[d][1,3]dioxol-4-yl)hexahydrofuro[3,4-b]pyrazin-1(2H)-yl)methyl)-4-methoxy-1-(((S)-oxetan-2-yl)methyl)-1H-benzo[d]imidazole-6-carboxylic acid], the EC50 in experiment [1] amounted to 210 nM; on human GLP-1R receptor, 140 nM.

Consider `C[C@@]1(c2ccc(Cl)cc2F)Oc2cccc(N3CCN(Cc4nc5c(Cl)cc(C(=O)O)cc5n4C[C@@H]4CCO4)[C@@H]4COC[C@@H]43)c2O1` (relative stereo) [Example 15a, 4-Chloro-2-(((4aR*,7aS*)-4-((R*)-2-(4-chloro-2-fluorophenyl)-2-methylbenzo[d][1,3]dioxol-4-yl)hexahydrofuro[3,4-b]pyrazin-1(2H)-yl)methyl)-1-(((S)-oxetan-2-yl)methyl)-1H-benzo[d]imidazole-6-carboxylic acid], for which the results for the EC50 (in experiment [1]; on human GLP-1R receptor) were 1.9 nM and 1.1 nM, respectively.

Turning to `C[C@]1(c2ccc(Cl)cn2)Oc2cccc(N3CCN(Cc4nc5c(Cl)cc(C(=O)O)cc5n4CCn4cccn4)[C@H]4COC[C@H]43)c2O1` (single isomer, unassigned) [Example 27], the EC50 was determined as 20 nM in experiment [1] and 81 nM on human GLP-1R receptor.

On to `C[C@]1(c2ccc(Cl)cc2F)Oc2cccc(N3CCN(Cc4nc5c(Cl)cc(C(=O)O)cc5n4C[C@@H]4CCO4)[C@H]4COC[C@H]43)c2O1` (single isomer, unassigned) [Example 15c, 4-Chloro-2-(((4aR*,7aS*)-4-((R*)-2-(4-chloro-2-fluorophenyl)-2-methylbenzo[d][1,3]dioxol-4-yl)hexahydrofuro[3,4-b]pyrazin-1(2H)-yl)methyl)-1-(((S)-oxetan-2-yl)methyl)-1H-benzo[d]imidazole-6-carboxylic acid], for which the EC50 in experiment [1] amounted to 560 nM; on human GLP-1R receptor, 150 nM.

As for `C[C@]1(c2ccc(Cl)cn2)Oc2cccc(N3CCN(Cc4nc5c(Cl)cc(C(=O)O)cc5n4C[C@@H]4CCCO4)[C@H]4COC[C@H]43)c2O1` (single isomer, unassigned) [Example 4a, 4-Chloro-2-(((4aR*,7aS*)-4-((R*)-2-(5-chloropyridin-2-yl)-2-methylbenzo[d][1,3]dioxol-4-yl)hexahydrofuro[3,4-b]pyrazin-1(2H)-yl)methyl)-1-(((S)-tetrahydrofuran-2-yl)methyl)-1H-benzo[d]imidazole-6-carboxylic acid], the EC50 in experiment [1] turned out to be 4.6 nM; at human GLP-1R receptor it was 5.1 nM.

`C[C@]1(c2ccc(Cl)cn2)Oc2cccc(N3CCN(Cc4nc5c(Cl)cc(C(=O)O)cc5n4C[C@@H]4CCO4)[C@H]4COC[C@H]43)c2O1` (single isomer, unassigned) [Example 14b, 4-Chloro-2-(((4aR*,7aS*)-4-((R*)-2-(5-chloropyridin-2-yl)-2-methylbenzo[d][1,3]dioxol-4-yl)hexahydrofuro[3,4-b]pyrazin-1(2H)-yl)methyl)-1-(((S)-oxetan-2-yl)methyl)-1H-benzo[d]imidazole-6-carboxylic acid]: the results for the concentration giving a half-maximal response (EC50) (in experiment [1]; at human GLP-1R receptor) were 600 nM and 170 nM, respectively.

Take `C[C@]1(c2ccc(Cl)cn2)Oc2cccc(N3CCN(Cc4nc5ccc(C(=O)O)cc5n4C[C@@H]4CCCO4)[C@H]4COC[C@H]43)c2O1` (single isomer, unassigned) [Example 8b, 2-(((4aR*,7aS*)-4-((R*)-2-(5-Chloropyridin-2-yl)-2-methylbenzo[d][1,3]dioxol-4-yl)hexahydrofuro[3,4-b]pyrazin-1(2H)-yl)methyl)-1-(((S)-tetrahydrofuran-2-yl)methyl)-1H-benzo[d]imidazole-6-carboxylic acid]: the EC50 in experiment [1] was found to be 1100 nM; on human GLP-1R receptor, 530 nM.
